Calls of active or inactive are those of the source.
Columns and labels:
Prothrombin = Prothrombin (Homo sapiens, UniProt P00734); experiment: Thrombin 1536 HTS Dose Response Confirmation. [Related pubchem assays: 1046 (Thrombin 1536 HTS; hits were confirmed in this assay)]; format: functional
Paired box protein Pax-8 = Paired box protein Pax-8 (Homo sapiens, UniProt Q06710); experiment: inhibitors of PAX8-driven TPO luciferase reporter, dose response, RMG-I cells, cherry-pick (AID 687027); format: functional, cell-based;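 also: luciferase reporter driven by Pax8 target thyroperoxidase promoter measured by SteadyGlo luminescence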
[1] = NIH:OVCAR-3 ovarian cancer cell cytotoxicity, dose response, PAX8 inhibitor project, plate reader, dry powder samples (AID 743044); format: functional, cell-based
[2] = cytotoxicity in OVCAR8 ovarian cancer cells, dose response, PAX8 project, cell-based, plate reader, dry powder samples (AID 743197); format: functional; details: OVCAR-8
[3] = molecular target: T1, Heat shock factor protein 1 (Mus musculus, UniProt P38532); experiment: inhibition of MG132-induced HSE-luciferase signal, confirmation, cell-based, NIH3T3, luminescence, dose retest (AID 2382); format: functional;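 also: NIH3T3 fibroblasts with HSF1-driven luciferase reporter stressed by proteasome inhibitor MG132; luminescence from HSF1-driven luciferase expression after 8 hours of MG132 stress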
T1 sequence (P38532 whole entry): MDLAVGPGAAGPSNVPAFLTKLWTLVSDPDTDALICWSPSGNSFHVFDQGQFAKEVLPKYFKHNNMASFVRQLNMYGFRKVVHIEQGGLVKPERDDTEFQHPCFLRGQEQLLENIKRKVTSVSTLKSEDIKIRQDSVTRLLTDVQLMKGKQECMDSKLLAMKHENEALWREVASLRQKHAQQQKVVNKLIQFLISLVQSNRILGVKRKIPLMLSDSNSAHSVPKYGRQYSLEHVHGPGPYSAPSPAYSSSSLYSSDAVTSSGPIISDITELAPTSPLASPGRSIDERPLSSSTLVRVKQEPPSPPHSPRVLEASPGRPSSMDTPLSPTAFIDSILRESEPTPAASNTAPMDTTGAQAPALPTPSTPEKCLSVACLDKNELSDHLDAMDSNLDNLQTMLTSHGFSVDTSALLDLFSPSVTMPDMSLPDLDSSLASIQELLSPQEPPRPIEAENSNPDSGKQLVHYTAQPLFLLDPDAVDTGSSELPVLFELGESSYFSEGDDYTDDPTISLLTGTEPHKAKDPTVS

Coagulation factor XII = molecular target: T2, Coagulation factor XII (Homo sapiens, UniProt P00748); format: functional;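 also: activated factor XIIa alpha cleaving a fluorogenic AMC peptide substrate; inhibitor potency from loss of enzyme activity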
T2 sequence (P00748 whole entry): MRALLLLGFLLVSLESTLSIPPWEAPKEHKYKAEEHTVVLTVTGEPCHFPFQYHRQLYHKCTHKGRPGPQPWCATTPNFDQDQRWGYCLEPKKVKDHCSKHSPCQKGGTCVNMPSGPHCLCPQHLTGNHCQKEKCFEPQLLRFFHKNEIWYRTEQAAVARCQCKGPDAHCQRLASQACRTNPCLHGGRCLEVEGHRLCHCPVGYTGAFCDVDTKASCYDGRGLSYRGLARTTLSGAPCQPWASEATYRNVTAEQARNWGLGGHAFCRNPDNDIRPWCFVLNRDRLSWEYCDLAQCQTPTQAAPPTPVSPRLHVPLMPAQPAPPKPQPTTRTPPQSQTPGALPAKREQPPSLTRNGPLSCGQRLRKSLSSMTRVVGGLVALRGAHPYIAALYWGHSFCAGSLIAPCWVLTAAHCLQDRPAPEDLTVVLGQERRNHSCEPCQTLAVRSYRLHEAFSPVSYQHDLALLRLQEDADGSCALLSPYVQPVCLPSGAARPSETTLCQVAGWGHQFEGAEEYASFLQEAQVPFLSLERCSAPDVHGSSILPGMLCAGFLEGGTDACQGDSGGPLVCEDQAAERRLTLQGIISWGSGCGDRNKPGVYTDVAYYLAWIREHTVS

SN12K1 = experiment: cells; format: functional; details: Homo sapiens
P388 = experiment: cells; format: functional; details: Mus musculus
P388/ADR = experiment: cells; format: functional; details: Mus musculus
Protein skinhead-1 = molecular target: T3, Protein skinhead-1 (Caenorhabditis elegans, UniProt P34707); format: functional
T3 sequence (P34707 whole entry): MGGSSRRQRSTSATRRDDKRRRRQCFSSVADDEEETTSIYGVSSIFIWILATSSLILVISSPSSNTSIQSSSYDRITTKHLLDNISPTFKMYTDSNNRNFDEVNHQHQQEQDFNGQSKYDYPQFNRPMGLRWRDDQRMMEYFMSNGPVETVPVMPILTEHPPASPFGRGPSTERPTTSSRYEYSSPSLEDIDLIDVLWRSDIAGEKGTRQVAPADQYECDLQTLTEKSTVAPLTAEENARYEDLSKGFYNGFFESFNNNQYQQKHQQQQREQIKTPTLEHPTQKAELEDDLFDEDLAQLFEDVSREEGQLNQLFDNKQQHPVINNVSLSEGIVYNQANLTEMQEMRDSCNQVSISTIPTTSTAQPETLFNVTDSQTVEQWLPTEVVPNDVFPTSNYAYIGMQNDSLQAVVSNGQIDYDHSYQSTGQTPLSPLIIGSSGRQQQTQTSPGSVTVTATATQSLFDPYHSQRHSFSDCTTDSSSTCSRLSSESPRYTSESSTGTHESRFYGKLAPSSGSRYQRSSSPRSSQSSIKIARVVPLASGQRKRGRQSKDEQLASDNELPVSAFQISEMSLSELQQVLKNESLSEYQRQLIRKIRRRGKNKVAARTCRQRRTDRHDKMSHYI

Nonstructural protein 1 = Nonstructural protein 1 (Influenza A virus, UniProt Q194T2); format: functional, Influenza A virus (A/California/07/2009(H1N1))
[4] = Luminescence Cell-Based Dose Retest to Confirm Inhibitors of Cancer Stem Cells. [Related pubchem assays (depositor defined):AID2717, AID2721]; format: functional; details: Homo sapiens
[5] = molecular target: G-protein coupled receptor 55 (Homo sapiens, UniProt Q9Y2T6); experiment: GPR55 antagonists blocking LPI-driven arrestin recruitment, primary screen, imaging, U2OS, beta-arrestin-GFP, LPI agonist (AID 2013); format: functional;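 also: antagonist potency measured as reduced agonist-driven arrestin aggregation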
fMet-Leu-Phe receptor = molecular target: T4, fMet-Leu-Phe receptor (Homo sapiens, UniProt P21462); experiment: FPR ligands, dose response (AID 519); format: functional
T4 sequence (P21462 whole entry): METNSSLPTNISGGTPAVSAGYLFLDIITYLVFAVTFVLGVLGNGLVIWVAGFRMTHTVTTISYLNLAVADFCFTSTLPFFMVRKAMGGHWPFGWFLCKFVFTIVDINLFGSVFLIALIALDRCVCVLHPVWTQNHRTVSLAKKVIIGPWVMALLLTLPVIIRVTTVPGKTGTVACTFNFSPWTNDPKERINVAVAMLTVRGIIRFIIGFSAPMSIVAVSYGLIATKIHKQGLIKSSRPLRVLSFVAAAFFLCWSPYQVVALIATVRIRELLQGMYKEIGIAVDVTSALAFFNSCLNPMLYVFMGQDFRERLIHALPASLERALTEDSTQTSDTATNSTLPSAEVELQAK

Cytochrome P450 3A4 = Cytochrome P450 3A4 (Homo sapiens, UniProt P08684); details: Potency;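 also: confirmatory qHTS run detecting inhibitors and substrates of CYP3A4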
[6] = inhibitors of firefly luciferase expression or activity, dose response, H4 neuroglioma cells, luminescence (AID 1990); format: functional, cell-based
[7] = cytotoxicity in HEK-293T cells, dose response, cytotoxicity control for TCR NF-kB inhibitor project, luminescence, T-cell screen hits (AID 489026); format: functional, cell-based;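 also: cells exposed to compound about 14 hours before the viability readout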
[8] = Luminescence Cell-Based Dose Response HTS to Identify Inhibitors of 5'UTR Stem-Loop Driven Prion Protein mRNA Translation in H4 Neuroglioblastoma Cells. [Related pubchem assays: 1827 (Project Summary), 1813 (Primary HTS)]; format: functional

Chain of Cytochrome P450 3A4 (P08684 whole entry): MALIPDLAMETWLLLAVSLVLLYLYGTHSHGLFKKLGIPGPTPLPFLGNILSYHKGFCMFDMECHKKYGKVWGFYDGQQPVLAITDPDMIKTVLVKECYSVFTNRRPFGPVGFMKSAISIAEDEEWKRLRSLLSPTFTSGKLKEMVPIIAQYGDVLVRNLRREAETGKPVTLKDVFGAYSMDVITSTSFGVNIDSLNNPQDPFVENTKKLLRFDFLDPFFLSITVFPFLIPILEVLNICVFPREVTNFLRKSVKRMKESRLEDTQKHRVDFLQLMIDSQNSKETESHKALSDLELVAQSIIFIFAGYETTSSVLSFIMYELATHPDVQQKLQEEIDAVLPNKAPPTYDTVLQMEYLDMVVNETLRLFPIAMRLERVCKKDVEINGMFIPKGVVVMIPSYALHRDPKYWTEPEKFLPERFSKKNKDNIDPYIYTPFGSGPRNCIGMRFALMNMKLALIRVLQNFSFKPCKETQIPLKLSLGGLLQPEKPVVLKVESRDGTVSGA
Chain of G-protein coupled receptor 55 (Q9Y2T6 whole entry): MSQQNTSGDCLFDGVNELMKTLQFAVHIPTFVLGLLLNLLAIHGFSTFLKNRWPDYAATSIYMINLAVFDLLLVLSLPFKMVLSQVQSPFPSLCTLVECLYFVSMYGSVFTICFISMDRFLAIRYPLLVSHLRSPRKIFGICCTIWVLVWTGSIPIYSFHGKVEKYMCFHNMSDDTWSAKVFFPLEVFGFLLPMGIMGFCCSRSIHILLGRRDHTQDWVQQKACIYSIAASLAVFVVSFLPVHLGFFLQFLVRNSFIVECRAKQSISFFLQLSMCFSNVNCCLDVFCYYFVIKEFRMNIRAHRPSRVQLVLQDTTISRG
Chain of Paired box protein Pax-8 (Q06710 whole entry): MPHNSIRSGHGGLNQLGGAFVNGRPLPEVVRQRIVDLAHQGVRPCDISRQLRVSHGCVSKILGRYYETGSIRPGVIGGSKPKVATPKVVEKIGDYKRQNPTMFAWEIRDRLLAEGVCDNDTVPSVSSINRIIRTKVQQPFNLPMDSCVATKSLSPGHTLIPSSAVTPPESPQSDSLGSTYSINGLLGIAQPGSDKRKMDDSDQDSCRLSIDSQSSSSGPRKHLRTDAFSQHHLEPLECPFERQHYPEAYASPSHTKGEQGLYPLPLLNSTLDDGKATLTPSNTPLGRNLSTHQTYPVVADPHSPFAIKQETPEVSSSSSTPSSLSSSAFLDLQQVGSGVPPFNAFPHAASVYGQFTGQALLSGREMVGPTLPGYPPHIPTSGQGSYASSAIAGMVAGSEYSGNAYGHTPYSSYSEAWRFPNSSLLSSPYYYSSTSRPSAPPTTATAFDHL
Chain of Nonstructural protein 1 (Q194T2 whole entry): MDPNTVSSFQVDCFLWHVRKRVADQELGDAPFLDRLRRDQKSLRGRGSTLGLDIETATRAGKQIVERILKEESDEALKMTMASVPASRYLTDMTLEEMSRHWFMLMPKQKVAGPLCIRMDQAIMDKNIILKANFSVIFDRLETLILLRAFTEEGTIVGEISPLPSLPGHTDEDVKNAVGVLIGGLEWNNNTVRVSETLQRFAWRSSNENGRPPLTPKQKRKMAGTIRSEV

CC(=O)n1nc(-c2ccc(Cl)cc2)nc1NCc1ccco1
IC50 (Prothrombin): 1.44 µM (active)

COc1ccc(-c2ccc3c(c2)[C@@H]2[C@@H](CCN2S(=O)(=O)c2ccc(OC)cc2)[C@@H](CO)N3C)cc1
AC50 (Paired box protein Pax-8): 12.3 µM (active) | AC50 [1]: 31.2 µM (active) | AC50 [2]: 51.2 µM (active)

CCCC(=O)n1nc(-c2cccnc2)nc1NCc1cccs1
IC50 (Prothrombin): 0.00426 µM (active)

O=C(O)CC(Cc1ccc(Br)cc1)C(=O)O (configuration not stated)
EC50 [3]: > 195 µM (not active) | IC50 (Coagulation factor XII): > 50 µM (inactive)

CN(N=O)C(=O)N[C@H]1C(O)O[C@H](CO)[C@@H](O)[C@@H]1O (some centres not stated)
GI50 (SN12K1): 532 µM (inactive) | GI50 (P388): 451 µM (inactive) | GI50 (P388/ADR): 484 µM (inactive)

CCN1C(=O)/C(=C2\C=Cc3cc(C)ccc3N2CC)OC1=S
IC50 (Protein skinhead-1): > 100 µM (inactive) | IC50 (Nonstructural protein 1): > 100 µM (active)

COc1cc(/C=N/NC(=O)c2cc(C34CC5CC(CC(C5)C3)C4)[nH]n2)ccc1O
AC50 [4]: 0.699 µM (active) | IC50 [5]: 2.69 µM (active)

O=C(C1=C(O)C(=O)N(CCc2ccccc2)C1c1cccnc1)c1ccco1 (configuration not stated)
Ki (fMet-Leu-Phe receptor): > 66.7 µM (inactive)

CCc1nnc(NC(=O)CSc2nnc(-c3cc4ccccc4cc3O)n2CC)s1
Ki (fMet-Leu-Phe receptor): 61.1 µM (inactive)

CC(C)c1ccc2c(c1)CCC1C(C)(C(N)=O)CCCC21C (configuration not stated)
AC50 (Cytochrome P450 3A4): 20 µM (inconclusive)

COc1ccc(N(CC(=O)Nc2ccc3c(c2)OCCO3)S(=O)(=O)c2c(C)nn(C)c2C)cc1
IC50 (Coagulation factor XII): > 50 µM (inactive)

C#CCNC(=O)CCC(N)C(=O)O (configuration not stated)
GI50 (SN12K1): > 100 µM (inactive) | GI50 (P388): > 100 µM (inactive) | GI50 (P388/ADR): > 100 µM (inactive)

COC1=C(C)C(=O)C2=C(C1=O)[C@@H]1[C@@H]3Cc4c(OC(=O)CO)c(C)c(OC)c(O)c4[C@H](CNC(=O)C(C)=O)N3[C@@H](C#N)[C@H](C2)N1C
GI50 (SN12K1): 0.0358 µM (active) | GI50 (P388): < 0.01 µM (active) | GI50 (P388/ADR): 0.125 µM (active)

COCCN(CCOC)c1nc(C)nc2c1nc(-c1ccccc1)n2CCN1CCCC1
AC50 (Cytochrome P450 3A4): 20 µM (inconclusive)

Cc1ccc2[nH]c(SCC(=O)Nc3cc(C(F)(F)F)ccc3N3CCOCC3)nc2c1
EC50 [6]: 5.2 µM (inconclusive) | IC50 [7]: > 80 µM (inactive) | EC50 [8]: 27.9 µM (active)

C[C@H](N)C(=O)N[C@@H]1[C@H]2C(=C(O)C[C@@H](O)[C@@H]2O)C(=O)O[C@@H]1C
GI50 (SN12K1): > 100 µM (inactive) | GI50 (P388): > 53.2 µM (inactive) | GI50 (P388/ADR): > 73.3 µM (inactive)

O=C(CSC1CCCCC1)Nc1nccs1
IC50 (Prothrombin): > 50 µM (not active)

— ChEMBL document CHEMBL1201862, “PubChem BioAssay data set” (2004)
